Reference: patent US12540131B2 (Merck Sharp & Dohme LLC, priority 2019, dated 2026)

biological target: GST tagged truncated human mutant G2019S LRRK2 (Homo sapiens (Human), UniProt Q5S007, G2019S); experiment: LRRK2 Km ATP LanthaScreen Assay; type: biochemical; settings: G2019S LRRK2, 134 μM ATP (Km ATP), mean values
Procedure: General Experimental Information: • Unless otherwise noted, all reactions are magnetically stirred. Unless otherwise noted, when diethyl ether is used in the experiments described below, it is Fisher ACS certified material and is stabilized with BHT. Unless otherwise noted, “concentrated” and/or “solvent removed under reduced pressure” means evaporating the solvent from a solution or mixture using a rotary evaporator or vacuum pump. Unless otherwise noted, flash chromatography is carried out on a Teledyne Isco (Lincoln, NE), Analogix (Burlington, WI), or Biotage (Stockholm, SWE) automated chromatography system using a commercially available cartridge as the column. Columns may be purchased from Teledyne Isco, Analogix, Biotage, Varian (Palo Alto, CA), or Supelco (Bellefonte, PA) and are usually filled with silica gel as the stationary phase. Reverse phase prep-HPLC conditions, where used, can be found at the end of each experimental section. Aqueous solutions were concentrated on a Genevac (Ipswich, ENG) or by freeze-drying/lyophilization. Unless otherwise noted, all LRRK2 pIC50 data presented in tables refers to the LRRK2 G2019S Km ATP LanthaScreen™ assay (Life Technologies Corp., Carlsbad, CA) that is described in the Biological Assay section.
The pIC50 values reported herein were measured as follows.
Biological Assay: LRRK2 Km ATP LanthaScreen™ Assay
Compound potency against LRRK2 kinase activity was determined using LanthaScreen™ technology from Life Technologies Corporation (Carlsbad, CA) using a GST20 tagged truncated human mutant G2019S LRRK2 in the presence of the fluorescein-labeled peptide substrate LRRKtide® (LRRK2 phosphorylated ezrin/radixin/moesin (ERM)), also from Life Technologies. The data presented for the Km ATP LanthaScreen™ Assay represents mean IC50 values based on several test results and may have reasonable deviations depending on the specific conditions and reagents used. Km is the Michaelis constant of an enzyme and is defined as the concentration of native substrate (ATP for a kinase) which permits the enzyme to achieve half Vmax (Vmax=rate of reaction when the enzyme is saturated with substrate). IC50 (half-maximal inhibitory concentration) represents the concentration of inhibitor required to inhibit LRRK2 kinase activity by 50%. Assays were performed in the presence of 134 μM ATP (Km ATP). Upon completion, the assay was stopped, and phosphorylated substrate detected with a terbium (Tb)-labeled anti-pERM antibody (cat. no. PV4898). The compound dose response was prepared by diluting a 10 mM stock of compound to a maximum concentration of 9.99 μM in 100% DMSO, followed by custom fold serial dilution in DMSO nine times. 20 nL of each dilution was spotted via a Labcyte Echo onto a 384-well black-sided plate (Corning 3575) followed by 15 μl of a 1.25 nM enzyme solution in 1× assay buffer (50 mM Tris pH 8.5, 10 mM MgCl2, 0.01% Brij-35, 1 mM EGTA, 2 mM dithiothreitol, 0.05 mM sodium orthovanadate). Following a 15-minute incubation period at RT, the kinase reaction was started with the addition of 5 μl of 400 nM fluorescein-labeled LRRKtide® (LRRK2 phosphorylated ezrin/radixin/moesin (ERM)) peptide substrate and 134 μM ATP solution in 1× assay buffer. The reaction was allowed to progress at ambient temperature for 90 minutes. The reaction was then stopped by the addition of 20 μl of TR-FRET Dilution Buffer (Life Technologies, Carlsbad, CA) containing 2 nM Tb-labeled anti-phospho LRRKtide® (LRRK2 phosphorylated ezrin/radixin/moesin (ERM)) antibody and 10 mM EDTA (Life Technologies, Carlsbad, CA). After an incubation period of 1 h at RT, the plate was read on an EnVision® multimode plate reader (Perkin Elmer, Waltham, MA) with an excitation wavelength of 337 nm (Laser) and a reading emission at both 520 and 495 nm. Compound IC50 values were interpolated from nonlinear regression best-fits of the log of the final compound concentration, plotted as a function of the 520/495-nm emission ratio using activity base “Abase”). […]

Sequence of GST tagged truncated human mutant G2019S LRRK2 (Q5S007 970-2527 G2019S): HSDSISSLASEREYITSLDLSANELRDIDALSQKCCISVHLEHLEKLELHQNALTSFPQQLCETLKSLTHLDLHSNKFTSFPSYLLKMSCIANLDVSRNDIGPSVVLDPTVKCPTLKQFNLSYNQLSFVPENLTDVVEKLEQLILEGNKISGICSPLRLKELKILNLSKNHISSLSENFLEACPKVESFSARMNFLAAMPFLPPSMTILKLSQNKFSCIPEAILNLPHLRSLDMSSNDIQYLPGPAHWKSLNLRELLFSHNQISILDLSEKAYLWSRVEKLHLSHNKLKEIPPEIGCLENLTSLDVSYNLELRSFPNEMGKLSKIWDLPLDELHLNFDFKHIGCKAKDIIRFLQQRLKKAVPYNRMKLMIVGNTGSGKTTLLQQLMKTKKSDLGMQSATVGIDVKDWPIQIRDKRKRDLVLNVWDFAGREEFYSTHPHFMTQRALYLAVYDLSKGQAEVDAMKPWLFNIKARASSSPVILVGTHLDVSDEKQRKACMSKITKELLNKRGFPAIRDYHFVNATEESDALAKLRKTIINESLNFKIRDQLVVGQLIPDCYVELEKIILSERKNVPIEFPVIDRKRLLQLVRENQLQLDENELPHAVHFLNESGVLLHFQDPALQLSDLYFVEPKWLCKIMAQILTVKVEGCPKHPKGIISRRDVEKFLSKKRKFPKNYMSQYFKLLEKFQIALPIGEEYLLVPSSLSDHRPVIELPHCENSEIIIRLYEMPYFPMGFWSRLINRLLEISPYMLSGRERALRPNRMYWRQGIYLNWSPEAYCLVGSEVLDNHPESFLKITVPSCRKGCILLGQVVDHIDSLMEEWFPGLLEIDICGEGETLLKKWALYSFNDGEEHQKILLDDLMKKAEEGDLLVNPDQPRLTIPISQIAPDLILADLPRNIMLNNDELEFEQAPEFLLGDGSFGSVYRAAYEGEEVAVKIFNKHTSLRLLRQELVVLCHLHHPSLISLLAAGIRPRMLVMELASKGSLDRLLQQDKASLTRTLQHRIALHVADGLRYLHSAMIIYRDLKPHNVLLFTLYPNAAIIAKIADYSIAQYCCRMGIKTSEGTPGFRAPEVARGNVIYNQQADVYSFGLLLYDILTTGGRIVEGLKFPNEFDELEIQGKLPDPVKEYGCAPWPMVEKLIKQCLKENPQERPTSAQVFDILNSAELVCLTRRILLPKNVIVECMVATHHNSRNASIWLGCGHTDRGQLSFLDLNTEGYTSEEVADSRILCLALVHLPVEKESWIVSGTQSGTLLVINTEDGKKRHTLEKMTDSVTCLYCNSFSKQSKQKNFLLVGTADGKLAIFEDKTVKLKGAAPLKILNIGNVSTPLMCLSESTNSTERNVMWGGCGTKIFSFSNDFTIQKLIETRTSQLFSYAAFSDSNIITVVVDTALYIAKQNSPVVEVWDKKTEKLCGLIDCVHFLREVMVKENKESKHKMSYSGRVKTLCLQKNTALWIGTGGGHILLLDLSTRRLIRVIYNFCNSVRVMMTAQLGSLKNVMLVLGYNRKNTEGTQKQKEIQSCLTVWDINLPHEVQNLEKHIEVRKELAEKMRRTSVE

N#Cc1cc2cnc(Nc3cnn(C4CC4(F)F)c3Cl)nc2cc1[C@H]1CCN(C2COC2)C[C@@H]1F (single isomer, unassigned) [Ex-6.6, (R)(3S,4S) or (S)(3S,4S) or (R)(3R,4R) or (S)(3R,4R) 2-((5-chloro-1-(2,2-difluorocyclopropyl)-1H-pyrazol-4-yl)amino)-7-(3-fluoro-1-(oxetan-3-yl)piperidin-4-yl)quinazoline-6-carbonitrile] was tested. Which “LRRK2 pIC50” value did it give?
Its value is 8.94.

How did the “LRRK2 pIC50” value turn out when FC(F)Cn1ncc(Nc2ncc3cc(Cl)c([C@@H]4CCN(C5COC5)C[C@H]4F)cc3n2)c1Cl (single isomer, unassigned) [Ex-4.37, (3S,4S) or (3R,4R) 6-chloro-N-[5-chloro-1-(2,2-difluoroethyl)-1H-pyrazol-4-yl]-7-[3-fluoro-1-(oxetan-3-yl)piperidin-4-yl]quinazolin-2-amine] was run?
The value was 9.15.

How did the “LRRK2 pIC50” value turn out when CC(=O)N1CCC(c2cc3nc(Nc4cnn(C5CC5)c4Cl)ncc3cc2Cl)C[C@@H]1C (some centres unmarked) [Ex-4.8] was run?
The value was 7.39.

With O[C@H]1COC[C@H]1N1CC[C@H](c2cc3nc(Nc4cnn(C56CC(C5)C6)c4Cl)ncc3cc2Cl)[C@@H](F)C1 (single isomer, unassigned) [Ex-8.37, (3S,4S)(3S,4S) or (3S,4S)(3R,4R) or (3R,4R)(3S,4S) or (3R,4R)(3R,4R) 4-[4-(2-{[1-(bicyclo[1.1.1]pentan-1-yl)-5-chloro-1H-pyrazol-4-yl]amino}-6-chloroquinazolin-7-yl)-3-fluoropiperidin-1-yl]oxolan-3-ol] as the compound, how does the “LRRK2 pIC50” value read?
The value was greater than 9.20.

For Cn1nc(C(F)(F)F)cc1Nc1ncc2cc(Cl)c(C3CCN([C@@H]4COC[C@@H]4O)CC3)cc2n1 (single isomer, unassigned) [Ex-1.24, (3S,4S) or (3R,4R) 4-[4-(6-chloro-2-{[1-methyl-3-(trifluoromethyl)-1H-pyrazol-5-yl]amino}quinazolin-7-yl)piperidin-1-yl]oxolan-3-ol], which “LRRK2 pIC50” value is on record?
The value was 8.58.

How did the “LRRK2 pIC50” value turn out when Cn1ncc(Nc2ncc3cc(Cl)c([C@H]4CCN([C@@H]5COC[C@@H]5O)C[C@@H]4F)cc3n2)c1Cl (single isomer, unassigned) [Ex-4.189, (3S,4S)(3S,4S) or (3S,4S)(3R,4R) or (3R,4R)(3S,4S) or (3R,4R)(3R,4R) 4-(4-{6-chloro-2-[(5-chloro-1-methyl-1H-pyrazol-4-yl)amino]quinazolin-7-yl}-3-fluoropiperidin-1-yl)oxolan-3-ol] was run?
The value was greater than 9.20.

Cc1cc(Nc2ncc3cc(Cl)c(C4CCN(C5COCC5O)CC4F)cc3n2)n(C)n1 (single isomer, unassigned) [Ex-4.236, (3S,4S)(3S,4S) or (3S,4S)(3R,4R) or (3R,4R)(3S,4S) or (3R,4R)(3R,4R) 4-(4-{6-chloro-2-[(1,3-dimethyl-1H-pyrazol-5-yl)amino]quinazolin-7-yl}-3-fluoropiperidin-1-yl)oxolan-3-ol] was tested. Which “LRRK2 pIC50” value did it give?
The value was 6.61.

How did the “LRRK2 pIC50” value turn out when O=S1(=O)CC(N2CC[C@@H](c3cc4nc(Nc5cnn(C6CC6)c5Cl)ncc4cc3Cl)[C@H](F)C2)C1 (single isomer, unassigned) was run?
Its value is 8.52.

For Cn1ncc(Nc2ncc3cc(Cl)c([C@H]4CCN([C@H]5COC[C@H]5O)C[C@@H]4F)cc3n2)c1C1CC1 (single isomer, unassigned) [Ex-4.242, (3S,4S)(3S,4S) or (3S,4S)(3R,4R) or (3R,4R)(3S,4S) or (3R,4R)(3R,4R) 4-(4-{6-chloro-2-[(5-cyclopropyl-1-methyl-1H-pyrazol-4-yl)amino]quinazolin-7-yl}-3-fluoropiperidin-1-yl)oxolan-3-ol], which “LRRK2 pIC50” value is on record?
The value was 7.67.

How did the “LRRK2 pIC50” value turn out when CC1(O)CCC(c2cc3nc(Nc4cnn(C5CC5)c4Cl)ncc3cc2Cl)CC1 (stereo not drawn) [Ex-1.17, cis-or trans-4-(6-chloro-2-((5-chloro-1-cyclopropyl-1H-pyrazol-4-yl)amino)quinazolin-7-yl)-1-methylcyclohexan-1-ol] was run?
Its value is 8.58.

With Cc1cc2cnc(Nc3cnn(C45CC(F)(C4)C5)c3Cl)nc2cc1[C@@H]1CCN([C@@H]2COC[C@@H]2O)C[C@H]1F (single isomer, unassigned) [Ex-4.232, (3S,4S)(3S,4S) or (3S,4S)(3R,4R) or (3R,4R)(3S,4S) or (3R,4R)(3R,4R) 4-[4-(2-{[5-chloro-1-(3-fluorobicyclo[1.1.1]pentan-1-yl)-1H-pyrazol-4-yl]amino}-6-methylquinazolin-7-yl)-3-fluoropiperidin-1-yl]oxolan-3-ol] as the compound, how does the “LRRK2 pIC50” value read?
Its value is greater than 9.20.

Which “LRRK2 pIC50” value does the source give for CC1(n2ncc(Nc3ncc4cc(Cl)c(C5(F)CCN(C6COC6)CC5)cc4n3)c2Cl)CC1 [Ex-4.24, 6-chloro-N-[5-chloro-1-(1-methylcyclopropyl)-1H-pyrazol-4-yl]-7-[4-fluoro-1-(oxetan-3-yl)piperidin-4-yl]quinazolin-2-amine] here?
The value was greater than 9.20.

How did the “LRRK2 pIC50” value turn out when FC1(c2cc3nc(Nc4cnn(C5CC5)c4Cl)ncc3cc2Cl)CCN(C2COC2)CC1 [Ex-4.31, 6-chloro-N-(5-chloro-1-cyclopropyl-1H-pyrazol-4-yl)-7-[4-fluoro-1-(oxetan-3-yl)piperidin-4-yl]quinazolin-2-amine] was run?
The value was 8.23.

Cc1cc2cnc(Nc3cc(C(F)(F)F)nn3C)nc2cc1C1CCN([C@]2(C)COC[C@@H]2O)CC1 (single isomer, unassigned) [Ex-5.15, (3S,4S) or (3R,4R) 4-methyl-4-[4-(6-methyl-2-{[1-methyl-3-(trifluoromethyl)-1H-pyrazol-5-yl]amino}quinazolin-7-yl)piperidin-1-yl]oxolan-3-ol] was tested. Which “LRRK2 pIC50” value did it give?
The value was 8.42.

Which “LRRK2 pIC50” value does the source give for Cc1c(Nc2ncc3cc(Cl)c(C4CCN([C@@]5(C)COC[C@H]5O)CC4)cc3n2)cnn1C (single isomer, unassigned) [Ex-2.65, (3S,4S) or (3R,4R) 4-(4-{6-chloro-2-[(1,5-dimethyl-1H-pyrazol-4-yl)amino]quinazolin-7-yl}piperidin-1-yl)-4-methyloxolan-3-ol] here?
Its value is 7.84.

With Cc1nsc(Nc2ncc3cc(Cl)c(C4CCN(C5COC5)CC4)cc3n2)c1Cl [Ex-8.5, 6-chloro-N-(4-chloro-3-methyl-1,2-thiazol-5-yl)-7-[1-(oxetan-3-yl)piperidin-4-yl]quinazolin-2-amine] as the compound, how does the “LRRK2 pIC50” value read?
Its value is greater than 9.20.

Which “LRRK2 pIC50” value does the source give for CC1(N2CCC(n3ncc(Nc4ncc5cc(Cl)c(C6CC6(F)F)cc5n4)c3Cl)C(F)C2)COC1 (single isomer, unassigned) [Ex-3.2, (3R,4R)(7S) or (3R,4R)(7R) or (3S,4S)(7S) or (3S,4S)(7R) 6-chloro-N-(5-chloro-1-(3-fluoro-1-(3-methyloxetan-3-yl)piperidin-4-yl)-1H-pyrazol-4-yl)-7-(2,2-difluorocyclopropyl)quinazolin-2-amine] here?
Its value is 7.07.

Clc1cc2cnc(Nc3cnn(C4CCC4)c3Cl)nc2cc1C1CCN(C2COC2)CC1 [Ex-4.15, 6-chloro-N-(5-chloro-1-cyclobutyl-1H-pyrazol-4-yl)-7-[1-(oxetan-3-yl)piperidin-4-yl]quinazolin-2-amine] was tested. Which “LRRK2 pIC50” value did it give?
Its value is greater than 9.20.

same assay, conditions: G2019S LRRK2, 134 μM ATP (Km ATP), mean values; read-out: LRRK2 pIC50 (converted)

For Cc1c(Nc2ncc3cc(Cl)c(C4CCN(C5COC5)CC4)cc3n2)cnn1C1CCOC1 (single isomer, unassigned) [Ex-2.23, (S) or (R) 6-chloro-N-[5-methyl-1-(oxolan-3-yl)-1H-pyrazol-4-yl]-7-[1-(oxetan-3-yl)piperidin-4-yl]quinazolin-2-amine], which IC50 is on record?
Its IC50 is 1.15 nM.

For Clc1cc2cnc(Nc3cnn(C4CC4)c3Cl)nc2cc1C1CCN(C2COC3(CCC3)C2)CC1 (single isomer, unassigned) [Ex-4.114, (R) or (S) 7-(1-(5-oxaspiro[3.4]octan-7-yl)piperidin-4-yl)-6-chloro-N-(5-chloro-1-cyclopropyl-1H-pyrazol-4-yl)quinazolin-2-amine], which IC50 is on record?
Its IC50 is 10 nM.
